These results are taken from patent US12391679B2, “Benzamide-substituted bicyclic imidazo- and pyrazolo-fused -pyridine, -pyrimide, and -pyridazine compounds for treatment of inflammatory diseases” (ONCO3R Therapeutics BV, priority 2019, dated 2025).

Structures are written as SMILES. Bounds are passed on as bounds.

In assay [1] the target is T1, SIK1 (Homo sapiens, UniProt P57059).
T1 construct: purchased Carna Biosciences 02-131
Kind of assay: ADP-Glo kinase assay, SIK1. The assay is classed as biochemical. The procedure, abridged: (§1)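 Steps: add enzyme–substrate mixture; start with diluted ATP; incubate RT 120 min; add ADP-Glo Reagent to terminate and remove unconsumed ATP, 40 min; add detection reagent, 30 min; read luminescence. DMSO at 1% and staurosporine at 10 μM (final) define assay windows.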
For orientation: ADP-Glo turns the ADP formed in a reaction into a luminescent signal.

The target in assay [2] is T2, SIK2 (Homo sapiens, UniProt Q9H0K1).
T2 construct: purchased ThermoFisher Scientific PV4792
Kind of assay: ADP-Glo kinase assay, SIK2. The format is biochemical. The procedure, abridged: as §1

In assay [3] the target is T3, SIK3 (Homo sapiens, UniProt Q9Y2K2).
T3 construct: purchased SignalChem S12-11G-100
Kind of assay: ADP-Glo kinase assay, SIK3. The format is biochemical. In short, it runs like this: as §1

Assay [4] has as its system LPS triggered IL-10 secretion in monocytes. Kind of assay: Monocytes assay: LPS-triggered IL-10 (ELISA). The format is cell-based, human. To be noted: Homo sapiens, Monocyte, LPS-triggered IL-10 induction, median maximal fold change vs LPS only, read-out: IL-10 FCmax median. The procedure, abridged:
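CD14+ monocytes bead-isolated from human PBMCs, pretreated with compound 1 h at 37 °C (0.2% DMSO), then stimulated with LPS 200 ng/mL for 4 h. Supernatant IL-10 measured by chemiluminescent sandwich ELISA; fold change versus LPS only per concentration, reported as maximal fold change (FCmax).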
For orientation: In an ELISA, binding on a coated surface is turned into a signal by an enzyme label.

T1 sequence (P57059 whole entry): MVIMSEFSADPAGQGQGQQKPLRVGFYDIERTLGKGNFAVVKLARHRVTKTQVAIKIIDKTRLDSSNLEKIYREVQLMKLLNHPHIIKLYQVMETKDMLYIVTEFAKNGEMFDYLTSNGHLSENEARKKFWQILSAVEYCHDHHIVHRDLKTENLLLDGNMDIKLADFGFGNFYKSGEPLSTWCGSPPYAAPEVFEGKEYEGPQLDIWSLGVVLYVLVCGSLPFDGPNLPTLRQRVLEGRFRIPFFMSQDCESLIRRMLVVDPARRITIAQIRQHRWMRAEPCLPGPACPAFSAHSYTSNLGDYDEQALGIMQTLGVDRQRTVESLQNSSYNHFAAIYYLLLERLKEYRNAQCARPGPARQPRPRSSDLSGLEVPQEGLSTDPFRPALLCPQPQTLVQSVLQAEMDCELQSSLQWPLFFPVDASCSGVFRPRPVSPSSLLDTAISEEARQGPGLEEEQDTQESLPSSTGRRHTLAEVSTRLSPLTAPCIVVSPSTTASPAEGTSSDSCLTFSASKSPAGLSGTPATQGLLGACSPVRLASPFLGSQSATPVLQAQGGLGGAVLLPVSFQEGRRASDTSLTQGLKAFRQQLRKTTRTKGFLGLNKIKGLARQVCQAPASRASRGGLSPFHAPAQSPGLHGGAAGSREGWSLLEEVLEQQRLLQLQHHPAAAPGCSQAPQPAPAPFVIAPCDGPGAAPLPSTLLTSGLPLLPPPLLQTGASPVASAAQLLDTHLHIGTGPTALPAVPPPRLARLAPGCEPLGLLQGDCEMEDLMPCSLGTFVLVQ
T2 sequence (Q9H0K1 whole entry): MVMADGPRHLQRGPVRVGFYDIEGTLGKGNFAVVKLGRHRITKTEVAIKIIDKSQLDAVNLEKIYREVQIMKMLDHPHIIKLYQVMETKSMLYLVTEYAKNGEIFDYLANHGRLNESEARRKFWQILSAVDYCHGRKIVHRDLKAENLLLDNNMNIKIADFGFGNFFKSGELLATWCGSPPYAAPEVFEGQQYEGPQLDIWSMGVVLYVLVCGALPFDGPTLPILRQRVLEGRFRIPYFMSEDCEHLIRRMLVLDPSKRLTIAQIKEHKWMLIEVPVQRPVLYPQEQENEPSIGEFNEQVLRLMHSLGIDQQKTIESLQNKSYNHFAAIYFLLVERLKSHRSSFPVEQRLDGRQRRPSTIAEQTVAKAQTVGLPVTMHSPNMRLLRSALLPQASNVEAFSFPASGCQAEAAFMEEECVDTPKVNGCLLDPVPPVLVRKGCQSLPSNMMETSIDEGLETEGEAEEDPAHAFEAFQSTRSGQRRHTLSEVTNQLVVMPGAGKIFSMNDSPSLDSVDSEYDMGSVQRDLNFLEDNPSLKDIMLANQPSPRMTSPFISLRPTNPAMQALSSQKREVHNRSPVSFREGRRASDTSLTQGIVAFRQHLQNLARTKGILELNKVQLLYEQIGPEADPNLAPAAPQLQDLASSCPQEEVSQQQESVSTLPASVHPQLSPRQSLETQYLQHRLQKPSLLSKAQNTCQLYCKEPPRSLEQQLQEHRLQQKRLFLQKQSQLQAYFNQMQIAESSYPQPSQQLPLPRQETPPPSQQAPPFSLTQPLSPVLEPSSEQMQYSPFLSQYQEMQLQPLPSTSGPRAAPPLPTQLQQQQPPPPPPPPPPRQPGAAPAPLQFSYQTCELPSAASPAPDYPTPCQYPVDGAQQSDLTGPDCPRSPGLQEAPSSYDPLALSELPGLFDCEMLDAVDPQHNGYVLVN
T3 sequence (Q9Y2K2 59-365 limits assumed): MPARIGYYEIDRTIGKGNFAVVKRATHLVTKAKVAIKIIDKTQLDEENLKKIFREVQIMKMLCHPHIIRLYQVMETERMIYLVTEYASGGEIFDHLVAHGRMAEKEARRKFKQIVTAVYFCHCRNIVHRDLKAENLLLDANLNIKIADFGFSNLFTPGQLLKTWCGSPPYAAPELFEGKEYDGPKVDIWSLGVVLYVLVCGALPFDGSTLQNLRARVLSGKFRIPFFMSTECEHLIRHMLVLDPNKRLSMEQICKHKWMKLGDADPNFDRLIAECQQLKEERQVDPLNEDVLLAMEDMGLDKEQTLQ

What is called IC50 is the concentration that inhibits the measured activity by half. Lower therefore signals inhibition by little substance. Take `COc1cc(-c2cnn3cc(C4COC4)ccc23)cc(OC(F)F)c1C(=O)N[C@@H]1C[C@@H]1F` [Cpd 218, 2-(difluoromethoxy)-N-[(1R,2S)-2-fluorocyclopropyl]-6-methoxy-4-[6-(oxetan-3-yl)pyrazolo[1,5-a]pyridin-3-yl]benzamide]: the IC50 was in the range of 100 to 500 nM in assay [1], 10 to 100 nM in assay [2] and 0.01 to 10 nM in assay [3]. Also, in assay [4], the maximal fold induction fell in the range of 1.5 to 4.5.
The matching figures for `COc1cc(-c2cnn3cc(C(C)(C)C#N)ccc23)cc(OC)c1C(=O)N[C@@H]1C[C@@H]1F` [Cpd 245, 4-[6-(1-cyano-1-methyl-ethyl)pyrazolo[1,5-a]pyridin-3-yl]-N-[(1R,2S)-2-fluorocyclopropyl]-2,6-dimethoxy-benzamide]: over 500 nM, over 500 nM, 10 to 100 nM and under 1.5.
In the case of `COc1cc(-c2cnc3cc(C(C)(C)C#N)ccn23)cc(OC(F)F)c1C(=O)NC1CC1` [Cpd 19, 4-[7-(1-cyano-1-methyl-ethyl)imidazo[1,2-a]pyridin-3-yl]-N-cyclopropyl-2-(difluoromethoxy)-6-methoxy-benzamide], the IC50 is over 500 nM in assay [1], over 500 nM in assay [2] and 0.01 to 10 nM in assay [3]. In addition, in assay [4], the maximal fold induction was under 1.5.
On to `COc1cc(-c2cnn3cc(C(C)(C)CO)ccc23)cc(OC(F)F)c1C(=O)N[C@@H]1C[C@@H]1F` [Cpd 242, 2-(difluoromethoxy)-N-[(1R,2S)-2-fluorocyclopropyl]-4-[6-(2-hydroxy-1,1-dimethyl-ethyl)pyrazolo[1,5-a]pyridin-3-yl]-6-methoxy-benzamide], for which the half-maximal inhibitory concentration (IC50) in assay [1] is over 500 nM; in assay [2] it was over 500 nM; in assay [3], 0.01 to 10 nM. The maximal fold induction in assay [4] is under 1.5.
`COc1cc(-c2cnn3cc(C(C)(C)CN4CCOCC4)ccc23)cc(OC(F)F)c1C(=O)N[C@@H]1C[C@@H]1F` [Cpd 269, 2-(difluoromethoxy)-4-[6-(1,1-dimethyl-2-morpholino-ethyl)pyrazolo[1,5-a]pyridin-3-yl]-N-[(1R,2S)-2-fluorocyclopropyl]-6-methoxy-benzamide]: the IC50 is over 500 nM in assay [1], over 500 nM in assay [2] and 0.01 to 10 nM in assay [3]. Also, the maximal fold induction in assay [4] lay within 1.5 to 4.5.
Turning to `COc1cc(-c2cnc3cc(C(F)(F)CO)ccn23)cc(OC(F)F)c1C(=O)NC1CC1` [Cpd 136, N-cyclopropyl-4-[7-(1,1-difluoro-2-hydroxy-ethyl)imidazo[1,2-a]pyridin-3-yl]-2-(difluoromethoxy)-6-methoxy-benzamide], the concentration for half-maximal inhibition (IC50) in assay [1] is over 500 nM; in assay [2], 100 to 500 nM; in assay [3], 0.01 to 10 nM. In addition, the maximal fold induction in assay [4] lay within 1.5 to 4.5.
The matching figures for `COc1cc(-c2cnc3cc(C4COC4)ccn23)cc(OC(F)F)c1C(=O)NC1CC1` [Cpd 174, N-cyclopropyl-2-(difluoromethoxy)-6-methoxy-4-[7-(oxetan-3-yl)imidazo[1,2-a]pyridin-3-yl]benzamide]: 100 to 500 nM, 10 to 100 nM, 0.01 to 10 nM and 1.5 to 4.5.
The matching figures for `COc1cc(-c2cnc3cc(C(C)(O)C(F)(F)F)ccn23)cc(OC(F)F)c1C(=O)NC1CC1` (stereo not drawn) [Cpd 129, N-cyclopropyl-2-(difluoromethoxy)-6-methoxy-4-[7-(2,2,2-trifluoro-1-hydroxy-1-methyl-ethyl)imidazo[1,2-a]pyridin-3-yl]benzamide]: over 500 nM, over 500 nM, 10 to 100 nM and 1.5 to 4.5.
The matching figures for `COc1cc(-c2cnc3cc(C(C)(C)O)ccn23)cc(OC(F)F)c1C(=O)N[C@@H]1C[C@@H]1F` [Cpd 211, 2-(difluoromethoxy)-N-[(1R,2S)-2-fluorocyclopropyl]-4-[7-(1-hydroxy-1-methyl-ethyl)imidazo[1,2-a]pyridin-3-yl]-6-methoxy-benzamide]: over 500 nM, 100 to 500 nM, 0.01 to 10 nM and 1.5 to 4.5.
Regarding `COc1cc(-c2cnc3cc(C(C)(C)C(C)O)ccn23)cc(OC(F)F)c1C(=O)NC1CC1` (stereo not drawn) [Cpd 172, N-cyclopropyl-2-(difluoromethoxy)-4-[7-(2-hydroxy-1,1-dimethyl-propyl)imidazo[1,2-a]pyridin-3-yl]-6-methoxy-benzamide], the figures for the IC50 in assay [1], in assay [2] and in assay [3] were over 500 nM, over 500 nM and 10 to 100 nM, respectively. Moreover, the maximal fold induction in assay [4] is under 1.5.
Regarding `COc1cc(-c2cnn3cc(C(C)(C)C#N)ccc23)cc(OC(F)F)c1C(=O)NC1CC1` [Cpd 208, 4-[6-(1-cyano-1-methyl-ethyl)pyrazolo[1,5-a]pyridin-3-yl]-N-cyclopropyl-2-(difluoromethoxy)-6-methoxy-benzamide], the IC50 in assay [1] is over 500 nM; in assay [2], over 500 nM; in assay [3] it was 10 to 100 nM. For the same compound, the maximal fold induction in assay [4] was under 1.5.
Regarding `COc1cc(-c2cnn3cc(C(C)(C)N)ccc23)cc(OC(F)F)c1C(=O)N[C@@H]1C[C@@H]1F` [Cpd 256, 4-[6-(1-amino-1-methyl-ethyl)pyrazolo[1,5-a]pyridin-3-yl]-2-(difluoromethoxy)-N-[(1R,2S)-2-fluorocyclopropyl]-6-methoxy-benzamide], the IC50 in assay [1] was over 500 nM; in assay [2], over 500 nM; in assay [3] it was 0.01 to 10 nM. Besides, the maximal fold induction in assay [4] was under 1.5.
Turning to `COc1cc(-c2cnc3cc(C(C)(C)C#N)ccn23)cc(OC(F)F)c1C(=O)NCC1CC1` [Cpd 39, 4-[7-(1-cyano-1-methyl-ethyl)imidazo[1,2-a]pyridin-3-yl]-N-(cyclopropylmethyl)-2-(difluoromethoxy)-6-methoxy-benzamide], the IC50 in assay [1] is over 500 nM; in assay [2] it was over 500 nM; in assay [3] it was 0.01 to 10 nM. Further, in assay [4], the maximal fold induction was in the range of 1.5 to 4.5.
Turning to `COc1cc(-c2cnc3cc(C4(O)CCOCC4)ccn23)cc(OC(F)F)c1C(=O)NC1CC1` [Cpd 170, N-cyclopropyl-2-(difluoromethoxy)-4-[7-(4-hydroxytetrahydropyran-4-yl)imidazo[1,2-a]pyridin-3-yl]-6-methoxy-benzamide], the IC50 in assay [1] was over 500 nM; in assay [2] it was over 500 nM; in assay [3] it was 10 to 100 nM. For the same compound, the maximal fold induction in assay [4] is 1.5 to 4.5.
Regarding `COc1cc(-c2cnc3cc(C4(C#N)CCOCC4)ccn23)cc(OC)c1C(=O)NCC(F)(F)F` [Cpd 107, 4-[7-(4-cyanotetrahydropyran-4-yl)imidazo[1,2-a]pyridin-3-yl]-2,6-dimethoxy-N-(2,2,2-trifluoroethyl)benzamide], the half-maximal inhibitory concentration (IC50) was over 500 nM in assay [1], over 500 nM in assay [2] and 0.01 to 10 nM in assay [3]. Also, in assay [4], the maximal fold induction was 1.5 to 4.5.
Turning to `COc1cc(-c2cnc3cc(C4COC4)ccn23)cc(OC(F)F)c1C(=O)N[C@@H]1C[C@@H]1F` [Cpd 206, 2-(difluoromethoxy)-N-[(1R,2S)-2-fluorocyclopropyl]-6-methoxy-4-[7-(oxetan-3-yl)imidazo[1,2-a]pyridin-3-yl]benzamide], the 50% inhibitory concentration (IC50) in assay [1] fell in the range of 100 to 500 nM; in assay [2], 10 to 100 nM; in assay [3] it was 0.01 to 10 nM. Further, the maximal fold induction in assay [4] fell in the range of 1.5 to 4.5.
With `COc1cc(-c2cnn3cc(C4(C(N)=O)CCC4)ccc23)cc(OC(F)F)c1C(=O)N[C@@H]1C[C@@H]1F` [Cpd 254, 4-[6-(1-carbamoylcyclobutyl)pyrazolo[1,5-a]pyridin-3-yl]-2-(difluoromethoxy)-N-[(1R,2S)-2-fluorocyclopropyl]-6-methoxy-benzamide], the IC50 is over 500 nM in assay [1], over 500 nM in assay [2] and 0.01 to 10 nM in assay [3]. In addition, the maximal fold induction in assay [4] was under 1.5.
Consider `COc1cc(-c2cnc3cc(C(C)(C)C#N)ccn23)cc(OC(F)F)c1C(=O)N[C@@H]1C[C@@H]1F` [Cpd 79, 4-[7-(1-cyano-1-methyl-ethyl)imidazo[1,2-a]pyridin-3-yl]-2-(difluoromethoxy)-N-[(1R,2S)-2-fluorocyclopropyl]-6-methoxy-benzamide], for which the concentration for half-maximal inhibition (IC50) is over 500 nM in assay [1], 100 to 500 nM in assay [2] and 0.01 to 10 nM in assay [3]. For the same compound, the maximal fold induction in assay [4] was 1.5 to 4.5.
The matching figures for `COc1cc(-c2cnc3cc(C4(F)COC4)ccn23)cc(OC(F)F)c1C(=O)NC1CC1` [Cpd 207, N-cyclopropyl-2-(difluoromethoxy)-4-[7-(3-fluorooxetan-3-yl)imidazo[1,2-a]pyridin-3-yl]-6-methoxy-benzamide]: over 500 nM, 100 to 500 nM, 0.01 to 10 nM and under 1.5.
As for `COc1cc(-c2cnc3cc([C@@](C)(C#N)CO)ccn23)cc(OC(F)F)c1C(=O)NC1CC1` (single isomer, unassigned) [Cpd 189, 4-[7-(1-cyano-2-hydroxy-1-methyl-ethyl)imidazo[1,2-a]pyridin-3-yl]-N-cyclopropyl-2-(difluoromethoxy)-6-methoxy-benzamide], the half-maximal inhibitory concentration (IC50) is over 500 nM in assay [1], over 500 nM in assay [2] and 10 to 100 nM in assay [3]. Moreover, the maximal fold induction in assay [4] was under 1.5.
Turning to `COc1cc(-c2cnc3cc(C4(C#N)CCOC4)ccn23)cc(OC(F)F)c1C(=O)NC1CC1` (stereo not drawn) [Cpd 123, 4-[7-(3-cyanotetrahydrofuran-3-yl)imidazo[1,2-a]pyridin-3-yl]-N-cyclopropyl-2-(difluoromethoxy)-6-methoxy-benzamide], the half-maximal inhibitory concentration (IC50) in assay [1] is over 500 nM; in assay [2] it was over 500 nM; in assay [3], 10 to 100 nM. The maximal fold induction in assay [4] is 1.5 to 4.5.
